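These data come from cells grown in 96-well plates and exposed to compound for 48 hours at five concentrations. At the GI50, growth is halved. The concentration for full growth arrest is given as TGI.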
Test system: MDA-MB-468 breast
Experiment: growth of human tumour cells (NCI), 48 h

In the case of COc1cc2nc(-c3ccc(C(F)(F)F)cc3)cc(OCCCN3CCC(O)CC3)c2cc1OC, the GI50 is reported as 1630 nM and the TGI is reported as 11300 nM.
Molecule Clc1ccc2c(N/N=C/c3c[nH]c4ccccc34)ccnc2c1 has a GI50 of 1010 nM and a TGI of 2450 nM.
Nc1cc2nc3ccccc3sc-2cc1=O showed a GI50 of 3740 nM and a TGI of 16100 nM.
With O=C(Nc1ccc(I)cc1)c1cc([N+](=O)[O-])ccc1O the GI50 was 3990 nM and the TGI was 39400 nM.
Cc1nc2c(nc1C)C(=O)c1ccccc1C2=O was tested, and the GI50 was 1500 nM and the TGI was 6040 nM.
For Cc1cc(=O)n2[nH]c(-c3ccc(C(C)(C)C)cc3)cc2n1, the GI50 was 3380 nM and the TGI was 40600 nM.
COc1cc2c(c(OC)c1O)C(=O)C(OC)C(c1ccc(O)c(O)c1)O2 (configuration not stated) was tested, and the GI50 was 464 nM and the TGI was 33300 nM.
O=C(CCl)N1c2ccccc2Oc2ccc3ccccc3c21 showed a GI50 of 973 nM and a TGI of 2450 nM.
CNC(=O)c1ccccc1Nc1nc(Nc2ccc(N3CCOCC3)cc2OC)ncc1Cl was tested, and the GI50 was 1490 nM and the TGI was 4320 nM.
With COc1cc(C(=O)/C=C/c2sc(Cl)nc2Cl)cc(OC)c1OC the GI50 was 1830 nM and the TGI was 3700 nM.
Work on Oc1ccc(Cl)cc1-c1cc(-c2ccccc2Cl)[nH]n1 yielded a GI50 of 1960 nM and a TGI of 7930 nM.
CSc1ccccc1C#C/C=C\C#Cc1ccccc1N1CCCC1=O showed a GI50 of 1890 nM and a TGI of 13800 nM.
Cc1cnc(NC(=O)C(Cc2ccccc2)NC(=O)c2ccccc2)s1 (configuration not stated) was tested, and the GI50 was 15800 nM and the TGI was 35700 nM.
For C[C@@H](CS(C)(=O)=O)Nc1ncc2cc(Oc3ccc(F)cc3F)c(=O)n(C)c2n1, the GI50 was > 25000 nM and the TGI was > 25000 nM.
COc1ccc2c(c1)C(=O)/C(=C/c1ccc(OCC(=O)Nc3nccs3)cc1)O2 showed a GI50 of 18.1 nM and a TGI of 39.2 nM.
Work on COC(=O)Nc1nc2ccc(S(=O)c3ccccc3)cc2[nH]1 (configuration not stated) yielded a GI50 of 1940 nM and a TGI of 8290 nM.
NC1CCC(Nc2nc(NCc3ccc(-c4ccco4)nc3)c3ncn(C4CCCC4)c3n2)CC1 (configuration not stated) showed a GI50 of 8.41 nM and a TGI of 34.9 nM.
CCOc1ccccc1-n1c(CN2CCN(C(=O)COc3ccc(CNCCCCCCN4C5CCCC4CC(OC(=O)Nc4cc(C)ccc4OC)C5)cc3)CC2)nc2ccccc2c1=O (configuration not stated) showed a GI50 of 786 nM and a TGI of 2420 nM.
In the case of Clc1ccc2oc3c(NCCCN4CCOCC4)c4ccccc4nc3c2c1, the GI50 is reported as 1490 nM and the TGI is reported as 3500 nM.
O=C(Nc1ccc(F)cc1F)c1cc(I)ccc1O was tested, and the GI50 was 2550 nM and the TGI was 6880 nM.
Cc1cc2nc(C(Cl)Cl)nc(-c3ccc(Cl)cc3)n2n1 was tested, and the GI50 was 299 nM and the TGI was 1120 nM.
CN(C)CCCNC1=C(Cl)C(=O)c2ccccc2C1=O gave a GI50 of 1590 nM and a TGI of 3330 nM.
O=C(CN1CCN(c2cc3c(cc2F)c(=O)c(C(=O)N/N=C/c2ccccc2O)cn3C2CC2)CC1)N/N=C\c1ccccc1O gave a GI50 of 599 nM and a TGI of 2960 nM.
With Clc1cccc(Cc2cn3cc(-c4ccccc4)nc3s2)c1Cl the GI50 was 6280 nM and the TGI was > 100000 nM.
For O=C1c2ccccc2C(=O)c2sc(Nc3cccc(Cl)c3)nc21, the GI50 was 1770 nM and the TGI was 3890 nM.
Work on CC(=O)[O][Hg][c]1c(N)c(C)cc(C)c1F yielded a GI50 of 1340 nM and a TGI of 2740 nM.
Molecule C=C(CNCCO)[C@@H]1CC[C@]2(CO)CC[C@]3(C)[C@H](CC[C@@H]4[C@@]5(C)CCC(N)C(C)(C)[C@@H]5CC[C@]43C)[C@@H]12 (some centres not stated) has a GI50 of 1670 nM and a TGI of 3530 nM.
In the case of COc1ccc(-c2cc(-c3ccc(Nc4nc(Nc5ccccc5)nc(Nc5ccc(Cl)cc5)n4)cc3)nc(N)c2C#N)cc1, the GI50 is reported as 1150 nM and the TGI is reported as 3050 nM.
With Fc1ccc(Nc2ncnc3ccc(-c4cnc5[nH]ccc5c4)cc23)cc1Cl the GI50 was 115 nM and the TGI was 575 nM.
For CCCCCCCC(=O)SCC/C=C/[C@@H]1CC(=O)NCc2cccc(n2)C2=N[C@@](C)(CS2)C(=O)N[C@@H](C(C)C)C(=O)N1, the GI50 was 535 nM and the TGI was > 33300 nM.
With NC(CSC(c1ccccc1)(c1ccccc1)c1ccc2c(c1)OCO2)C(=O)O (configuration not stated) the GI50 was 254 nM and the TGI was 672 nM.
For Cn1ccnc1C(=O)/C=C/c1ccc(CC(=O)Nc2ccc(Br)cc2)cc1, the GI50 was 2700 nM and the TGI was 6620 nM.
Molecule O=C1/C(=C/c2ccc([N+](=O)[O-])cc2)COc2ccc(O)c(O)c21 has a GI50 of 1870 nM and a TGI of 5550 nM.
CNC(=O)c1cc(Oc2ccc3nc(NC(=O)Nc4ccc(Cl)c(C(F)(F)F)c4)sc3c2)ccn1 was tested, and the GI50 was 1360 nM and the TGI was 4100 nM.
In the case of COc1cc(/C=C/c2cc(/C=C/c3ccc(O)c(OC)c3)n(C(=O)Nc3ccc(F)cc3)n2)ccc1O, the GI50 is reported as 1400 nM and the TGI is reported as 5760 nM.
COc1cc2c3c(n(CCCNC4CCCCC4)c(=O)c2cc1OC)-c1cc2c(cc1C3=O)OCO2 was tested, and the GI50 was 5650 nM and the TGI was 15700 nM.
For COc1c2ccoc2c(/C=C/C=O)c2oc(-c3ccccc3)cc(=O)c12, the GI50 was 7020 nM and the TGI was 22200 nM.
Molecule CC(C)c1ccc(C(C)C(=O)N(CC2=C(C(C)c3ccccn3)c3ccccc3C2)C(C)C)cc1 (configuration not stated) has a GI50 of 2780 nM and a TGI of 41700 nM.
CCOC(=O)Nc1nc2ccc(OCC)cc2s1 was tested, and the GI50 was 2080 nM and the TGI was > 100000 nM.
O=C(NCCNc1nccc(-c2c(-c3cccc(O)c3)nc3sccn23)n1)c1ccccc1O showed a GI50 of 2640 nM and a TGI of 21000 nM.
Work on O=c1n(CC2CO2)c(=O)n(CC2CO2)n1CC1CO1 (configuration not stated) yielded a GI50 of 2290 nM and a TGI of 16800 nM.

— PubChem BioAssay (NCI)
